Test results taken from patent US20250090437A1, “COSMETIC COMPOUNDING AGENT, COSMETIC AND PRODUCTION METHOD THEREOF” (MIYOSHI OIL & FAT CO., LTD., priority 2019, published 2025).

Key:
[1] = Sensory evaluation on healthy hair after using organic ammonium salt; parameters: species or system human; details: healthy hair, 80 wt % aqueous solution
Description: Here, an 80 wt % aqueous solution(s) of each of the compounds B11, B12, B23, B26 and B27 (content in terms of anhydride in the cases of the compounds B11, B12 and B23) were prepared and used as samples. Next, one minute was spent in evenly applying 10.0 g of each sample to a bundle of the healthy hairs weighing about 10 g, using a brush; the bundle of the healthy hairs was then left for 5 min. After leaving it for 5 min, the bundle of the healthy hairs was rinsed with a hot water of 40° C. for 30 sec, and evaluated was a finger-combing capability at the time of performing washing. The hair bundle that had been rinsed was then dried with a towel and further subjected to air drying for a day, followed by evaluating items such as flexibility, finger-combing capability, texture, elasticity/resilience (feeling by bare hands), volume increase (visual evaluation), cohesiveness, moist feeling, surface smoothness, non-stickiness (feeling by bare hands) and gloss (visual evaluation), from the perspective of superiority or inferiority to a test hair bundle(s) uncoated with the sample.

[2] = Sensory evaluation on healthy hair after using shampoo agent containing organic ammonium salt; parameters: species or system human; details: shampoo agent containing 3.0% by mass of the compound; treated 10 times
Description: (§1) Next, the mixture was cooled to a temperature of 30° C. or lower, and a purified water of an evaporated amount was then added thereto so that the whole hair treatment composition would be 100% by mass, followed by uniformly mixing them so as to obtain a hair treatment composition(s). The pH level of the hair treatment composition was adjusted to pH 6.0 by adding a citric acid or sodium hydroxide.
About 5 g of the healthy hair was taken and dipped into 350 ml of a seven-time dilute aqueous solution of each of the abovementioned hair treatment compositions (shampoo agents) at 35 to 40° C. so as to be washed. The healthy hair was then subjected to a rinsing treatment five times using 500 ml of a warm water of 35 to 40° C., followed by drying the same at 80° C., and then performing air drying at 25° C. Such series of treatment involving hair washing, rinsing and drying was repeated 10 times to then evaluate a cohesiveness of the hair, a moist feeling of the hair, a gloss of the hair, a surface smoothness of the hair and a non-stickiness on the surface of the hair, after performing air drying.

[3] = Sensory evaluation on damaged hair after using shampoo agent containing organic ammonium salt; parameters: species or system human; details: shampoo agent containing the compound; treated 10 times
Description: as §1
The damaged hair was repeatedly treated 10 times in a similar manner as 3-1; evaluated were a cohesiveness of the hair, surface smoothness of the hair and waviness of the hair after performing air drying.

[4] = Water retention property test 1; format: physicochemical; details: 80 wt % aqueous solution
Description: A moisture rate after 24 hours was again measured (post-test moisture rate: B), followed by using the formula below to calculate a rate of reduction in moisture so as to evaluate the water retention property. • Pre-test moisture rate: A (%) • Post-test moisture rate: B (%)

[5] = Water retention property test 3 (long term); format: physicochemical; details: 80 wt % aqueous solution, 40° C. and 25% RH
Description: In a water retention property test 3, an 80 wt % aqueous solution of each of the compounds C8, C11, C62, C63 and C64 was prepared, followed by using a Karl Fischer moisture meter to confirm that a moisture rate was 20.0 wt %. Next, 1.0 g of each of these samples was added to a screw tube, and this screw tube, while remaining unsealed, was then left to stand still in a thermo-hygrostat set to 40° C. and 25% RH. […] In addition, the water retention property was evaluated by calculating an amount of moisture reduction per hour (mg/h) based on each amount of moisture reduction (mg).

[6] = Water confinement property test (barrier property); format: physicochemical; details: 80 wt % aqueous solution, 0.01 mL/cm^2 on filter paper, 40° C. and 25% RH, 24 hours
[7] = Permeability to skin (horny layer tape stripping method); format: in vivo; details: extraction liquid, an hour after application to the arm, HPLC
Description: Skin permeability was evaluated by a horny layer tape stripping method. […] A sample was applied to the arm and then left thereon for an hour before performing tape stripping on the horn by eight layers. An adhered substance on this tape was then extracted with an ion-exchange water over the course of 10 min, followed by filtrating an extraction liquid thus obtained with a 0.2 μm filter, and then quantifying, via HPLC, the amount of each of the compounds C20, C64 and C97 in each extraction liquid filtrated.

[8] = Solubility of active ingredient (gallic acid) in aqueous solution of the compound; details: in 1.8 g compound + 8.2 g ion-exchange water
[9] = unsealed, 24 hours at 40° C. and 25% RH

Q: What does the source list for `OCC(O)CO` [Compound A52, glycerin, reference compound]?
A: After air drying: Cohesiveness of hair [1]: Δ~X; After air drying: Elasticity/Resilience [1]: Δ~X; After air drying: Finger-combing capability [1]: Δ~X; After air drying: Flexibility [1]: Δ~X; After air drying: Gloss of hair [1]: Δ~X; After air drying: Moist feeling [1]: Δ~X; After air drying: Non-stickiness of hair surface [1]: Δ~X; After air drying: Smoothness of hair surface [1]: Δ~X; After air drying: Texture [1]: Δ~X; After air drying: Volume increase [1]: Δ~X; When washing: Finger-combing capability ([1]; versus uncoated hair bundle): ◯; Sensory evaluation of healthy hair after shampoo agent (cohesiveness, moist feeling, gloss, smoothness, non-stickiness) [2]: inferior in general; Sensory evaluation of damaged hair after shampoo agent (cohesiveness, surface smoothness, waviness) [3]: inferior surface smoothness; Pre-test moisture rate ([4]; before the test (Karl Fischer)): 20.0%; Post-test moisture rate [4, 9]: 18.0%; Rate of reduction in moisture [4, 9]: 10.0%; Amount of moisture reduction in 120 to 144 h ([5]; unsealed): 29.4 mg; Amount of moisture reduction in 144 to 168 h ([5]; unsealed): 30.0 mg; Amount of moisture reduction in 168 to 192 h ([5]; unsealed): 13.1 mg; Moisture rate after 144 h ([5]; unsealed): 5.4%; Moisture rate after 168 h ([5]; unsealed): 1.9%; Moisture rate after 192 h ([5]; unsealed): 0.3%; Amount of moisture reduction per hour ([5]; 120~144 h): 1.2 mg/h; Amount of moisture reduction per hour ([5]; 144~168 h): 1.3 mg/h; Amount of moisture reduction per hour ([5]; 168~192 h): 0.5 mg/h; Water evaporation inhibition rate [6]: 16.2%; Compound concentration ([7]; Tape stripping layer 1): 0.030 ml/L; Compound concentration ([7]; Tape stripping layer 2): 0.014 ml/L; Compound concentration ([7]; Tape stripping layer 3): 0.009 ml/L; Compound concentration ([7]; Tape stripping layer 4): 0.009 ml/L; Compound concentration ([7]; Tape stripping layer 5): 0.008 ml/L; Compound concentration ([7]; Tape stripping layer 6): 0.006 ml/L; Compound concentration ([7]; Tape stripping layer 7): 0.006 ml/L; Compound concentration ([7]; Tape stripping layer 8): 0.006 ml/L; Amount of dissolution Gallic acid [8]: 0.08 g
